Consider 32 molecules from US7932270B2 (Cytokinetics, Inc., priority 2006, dated 2011).

In the experiment the target is T1, chicken gizzard smooth muscle myosin subfragment-1 chemically crosslinked to cardiac or skeletal actin (Gallus gallus, UniProt P10587).
T1 construct: chicken gizzard smooth muscle myosin subfragment-1; from tissue; host or cells: chicken gizzard
Briefly: Smooth muscle myosin ATPase dose response assay (pyruvate kinase/horseradish peroxidase/pyruvate oxidase-coupled, amplex red fluorescence). It is filed as biochemical. The settings on record: read-out: IC50 Arithmetic Mean. The method, boiled down:
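ATPase monitored by amplex red fluorescence (ex 480/em 615 nm) via pyruvate oxidase/HRP coupling, pH 7.00, ATP 0.15 mM. Enzyme: smooth muscle S1-actin crosslinked conjugate, amount set empirically by titration. Dose-response fitted with 4-parameter Hill equation for IC50.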

T1 sequence (P02607 2-151): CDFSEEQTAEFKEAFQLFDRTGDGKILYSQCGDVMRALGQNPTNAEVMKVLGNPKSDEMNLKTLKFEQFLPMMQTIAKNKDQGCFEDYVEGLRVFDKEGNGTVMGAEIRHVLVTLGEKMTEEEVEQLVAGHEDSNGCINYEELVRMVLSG
T1 sequence (P10587 84-789): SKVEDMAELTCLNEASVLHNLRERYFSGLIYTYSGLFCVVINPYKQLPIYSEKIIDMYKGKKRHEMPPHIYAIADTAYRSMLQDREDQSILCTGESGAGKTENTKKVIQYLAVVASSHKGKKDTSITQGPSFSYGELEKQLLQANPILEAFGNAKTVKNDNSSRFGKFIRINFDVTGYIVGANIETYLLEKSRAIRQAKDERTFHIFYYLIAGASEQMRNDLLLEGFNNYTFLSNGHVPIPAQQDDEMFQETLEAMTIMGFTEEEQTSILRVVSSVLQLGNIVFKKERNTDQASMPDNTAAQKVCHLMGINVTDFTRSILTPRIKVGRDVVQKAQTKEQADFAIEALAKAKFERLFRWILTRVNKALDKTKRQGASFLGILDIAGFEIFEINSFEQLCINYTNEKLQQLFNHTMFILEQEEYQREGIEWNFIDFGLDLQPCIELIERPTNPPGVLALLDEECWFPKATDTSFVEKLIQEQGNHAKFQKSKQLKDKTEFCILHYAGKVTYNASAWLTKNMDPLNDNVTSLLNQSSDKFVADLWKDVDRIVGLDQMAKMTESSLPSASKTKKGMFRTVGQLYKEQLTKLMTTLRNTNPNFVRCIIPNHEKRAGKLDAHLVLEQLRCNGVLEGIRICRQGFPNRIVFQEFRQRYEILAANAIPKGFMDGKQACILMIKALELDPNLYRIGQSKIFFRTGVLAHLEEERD

A word on the IC50: it is the point on the concentration scale where inhibition reaches its midpoint. Consider `CN1CCN(C(=O)CCCN)C[C@@H]1CNC(=O)c1ccc(-c2ccccc2C#N)nc1NCCc1cccc(F)c1` [N-{[(2S)-4-(4-aminobutanoyl)-1-methylpiperazin-2-yl]methyl}(6-(2-cyanophenyl)-2-{[2-(3-fluorophenyl)ethyl]amino}(3-pyridyl))carboxamide], for which the IC50 was 6720 nM.

Regarding `N#Cc1ccccc1-c1ccc(C(=O)NC[C@H]2CN(C(=O)CCCN)CCN2)c(NCCc2cccc(F)c2)n1` [N-{[(2S)-4-(4-aminobutanoyl)piperazin-2-yl]methyl}(6-(2-cyanophenyl)-2-{[2-(3-fluorophenyl)ethyl]amino}(3-pyridyl))carboxamide], the IC50 came to 12400 nM.

On to `N#Cc1ccccc1-c1ccc(C(=O)NC[C@H]2CCCN(C(=O)CN)C2)c(NCCc2cccc(F)c2)n1` [N-{[(3R)-1-(2-aminoacetyl)(3-piperidyl)]methyl}(6-(2-cyanophenyl)-2-{[2-(3-fluorophenyl)ethyl]amino}(3-pyridyl))carboxamide], for which the IC50 worked out at 246 nM. Turning to `N#Cc1ccccc1-c1ccc(C(=O)NC[C@H]2CCCN(C(=O)CCN)C2)c(NCCc2cccc(F)c2)n1` [N-{[(3R)-1-(3-aminopropanoyl)(3-piperidyl)]methyl}(6-(2-cyanophenyl)-2-{[2-(3-fluorophenyl)ethyl]amino}(3-pyridyl))carboxamide], the IC50 was determined as 173 nM. Consider `N#Cc1ccccc1-c1ccc(C(=O)NC[C@H]2CCCN(C(=O)CCCN)C2)c(NCCc2cccc(F)c2)n1` [N-{[(3R)-1-(4-aminobutanoyl)(3-piperidyl)]methyl}(6-(2-cyanophenyl)-2-{[2-(3-fluorophenyl)ethyl]amino}(3-pyridyl))carboxamide], for which the IC50 was 512 nM. The result for `N#Cc1ccccc1-c1ccc(C(=O)NC[C@@H]2CCCN(C(=O)CN)C2)c(NCCc2cccc(F)c2)n1` [N-{[(3S)-1-(2-aminoacetyl)(3-piperidyl)]methyl}(6-(2-cyanophenyl)-2-{[2-(3-fluorophenyl)ethyl]amino}(3-pyridyl))carboxamide] reads 755 nM; that for `N#Cc1ccccc1-c1ccc(C(=O)NC[C@@H]2CCCN(C(=O)CCN)C2)c(NCCc2cccc(F)c2)n1` [N-{[(3S)-1-(3-aminopropanoyl)(3-piperidyl)]methyl}(6-(2-cyanophenyl)-2-{[2-(3-fluorophenyl)ethyl]amino}(3-pyridyl))carboxamide], 1260 nM.

Regarding `O=C(NCc1cccnc1)c1ccc(-c2ccc(C(=O)NCc3cccnc3)c(NCCc3cccc(F)c3)n2)nc1NCCc1cccc(F)c1` [[2-{[2-(3-fluorophenyl)ethyl]amino}-6-(6-{[2-(3-fluorophenyl)ethyl]amino}-5-[N-(3-pyridylmethyl)carbamoyl](2-pyridyl))(3-pyridyl)]-N-(3-pyridylmethyl)carboxamide], the IC50 came to 30600 nM. `NCc1ccc(-c2ccccc2)nc1NCCc1cccc(F)c1` [[3-(aminomethyl)-6-phenyl(2-pyridyl)][2-(3 fluorophenyl)ethyl]amine]: the IC50 was determined as 39500 nM. For the molecule `CCCNc1nc(-c2ccccc2)ccc1C(=O)NCc1cccnc1` [[6-phenyl-2-(propylamino)(3-pyridyl)]-N-(3-pyridylmethyl)carboxamide], the IC50 amounted to 11400 nM. Consider `O=C(NCc1cccnc1)c1ccc(-c2ccccc2)nc1NCCc1cccc(C(F)(F)F)c1` [[6-phenyl-2-({2-[3-(trifluoromethyl)phenyl]ethyl}amino)(3-pyridyl)]-N-(3-pyridylmethyl)carboxamide], for which the IC50 amounted to 8250 nM. In the case of `CCOC(=O)CNCC(O)c1ccc(-c2ccccc2)nc1NCCc1cccc(F)c1` (centres unmarked) [ethyl 2-{[2-(2-{[2-(3-fluorophenyl)ethyl]amino}-6-phenyl(3-pyridyl))-2-hydroxyethyl]amino}acetate], the IC50 was found to be 15100 nM.

Turning to `CCOC(=O)CCNC(=O)c1ccc(-c2ccccc2C#N)nc1NCCc1cccc(F)c1` [ethyl 3-[(6-(2-cyanophenyl)-2-{[2-(3-fluorophenyl)ethyl]amino}-3-pyridyl)carbonylamino]propanoate], the IC50 stood at 4790 nM. The result for `COC(=O)CNC(=O)c1ccc(-c2ccccc2)nc1NCCc1ccccc1` [methyl 2-({6-phenyl-2-[(2-phenylethyl)amino]-3-pyridyl}carbonylamino)acetate] reads 1340 nM; that for `COC(=O)CNC[C@H](N)CNC(=O)c1ccc(-c2cnn(C)c2)nc1NCCc1cccc(F)c1` [methyl 2-({(2S)-2-amino-3-[(2-{[2-(3-fluorophenyl)ethyl]amino}-6-(1-methylpyrazol-4-yl)(3-pyridyl))carbonylamino]propyl}amino)acetate], 10900 nM; that for `COC(=O)CNC[C@H](N)CNC(=O)c1ccc(-c2ccccc2C#N)nc1NCCc1cccc(F)c1` [methyl 2-({(2S)-2-amino-3-[(6-(2-cyanophenyl)-2-{[2-(3-fluorophenyl)ethyl]amino}(3-pyridyl))carbonylamino]propyl}amino)acetate], 913 nM.

With `COC(=O)CNC(=O)c1ccc(-c2ccccc2C#N)nc1NCCc1cccc(F)c1` [methyl 2-[(6-(2-cyanophenyl)-2-{[2-(3-fluorophenyl)ethyl]amino}-3-pyridyl)carbonylamino]acetate], the IC50 was found to be 101 nM. On to `COC(=O)c1cccc(CCNc2nc(-c3ccccc3)ccc2C(=O)NCc2cccnc2)c1` [methyl 3-[2-({6-phenyl-3-[N-(3-pyridylmethyl)carbamoyl]-2-pyridyl}amino)ethyl]benzoate], for which the IC50 was 28100 nM.

On to `COC(=O)CCC(=O)N1CCC[C@@H]1CNC(=O)c1ccc(-c2cnn(C)c2)nc1NCCc1cccc(F)c1` [methyl 4-((2R)-2-{[(2-{[2-(3-fluorophenyl)ethyl]amino}-6-(1-methylpyrazol-4-yl)(3-pyridyl))carbonylamino]methyl}pyrrolidinyl)-4-oxobutanoate], for which the IC50 was 3940 nM. `COC(=O)CCC(=O)N1CCC[C@@H]1CNC(=O)c1cc(F)c(-c2cnn(C)c2)nc1NCCc1cccc(F)c1` [methyl 4-((2R)-2-{[(5-fluoro-2-{[2-(3-fluorophenyl)ethyl]amino}-6-(1-methylpyrazol-4-yl)(3-pyridyl))carbonylamino]methyl}pyrrolidinyl)-4-oxobutanoate]: the IC50 worked out at 534 nM. The same measure for `COC(=O)CCC(=O)N1CC[C@@H]1CNC(=O)c1ccc(-c2ccccc2C#N)nc1NCCc1cccc(F)c1` [methyl 4-((2R)-2-{[(6-(2-cyanophenyl)-2-{[2-(3-fluorophenyl)ethyl]amino}(3-pyridyl))carbonylamino]methyl}azetidinyl)-4-oxobutanoate]: 519 nM; for `COC(=O)CCC(=O)N1CCC[C@@H]1CNC(=O)c1ccc(-c2ccccc2C#N)nc1NCCc1cccc(F)c1` [methyl 4-((2R)-2-{[(6-(2-cyanophenyl)-2-{[2-(3-fluorophenyl)ethyl]amino}(3-pyridyl))carbonylamino]methyl}pyrrolidinyl)-4-oxobutanoate]: 657 nM. As to `COC(=O)CCCNC(=O)c1ccc(-c2ccccc2C#N)nc1NCCc1cccc(F)c1` [methyl 4-[(6-(2-cyanophenyl)-2-{[2-(3-fluorophenyl)ethyl]amino}-3-pyridyl)carbonylamino]butanoate], the IC50 is 713 nM. The result for `COC(=O)c1ccc(-c2ccc(C(=O)NCc3cccnc3)c(NCCc3ccccn3)n2)cc1` [methyl 4-{6-[(2-(2-pyridyl)ethyl)amino]-5-[N-(3-pyridylmethyl)carbamoyl]-2-pyridyl}benzoate] reads 989 nM; that for `COC(=O)N1CCC(CNC(=O)c2ccc(-c3ccccc3C#N)nc2NCCc2cccc(F)c2)CC1` [methyl 4-{[(6-(2-cyanophenyl)-2-{[2-(3-fluorophenyl)ethyl]amino}-3-pyridyl)carbonylamino]methyl}piperidinecarboxylate], 2130 nM.

Consider `COC(=O)c1cc(Cl)c(-c2cnn(C)c2)nc1NCCc1cccc(F)c1` [methyl 5-chloro-2-{[2-(3-fluorophenyl)ethyl]amino}-6-(1-methylpyrazol-4-yl)pyridine-3-carboxylate], for which the IC50 turned out to be 15500 nM. Regarding `COC(=O)c1cccc(CNC(=O)c2ccc(-c3ccccc3C#N)nc2NCCc2cccc(F)c2)n1` [methyl 6-{[(6-(2-cyanophenyl)-2-{[2-(3-fluorophenyl)ethyl]amino}-3-pyridyl)carbonylamino]methyl}pyridine-2-carboxylate], the IC50 is 64 nM. Consider `COC(=O)[C@@H](CO)NC(=O)c1ccc(-c2ccccc2C#N)nc1NCCc1cccc(F)c1` [methyl (2R)-2-[(6-(2-cyanophenyl)-2-{[2-(3-fluorophenyl)ethyl]amino}(3-pyridyl))carbonylamino]-3-hydroxypropanoate], for which the IC50 came to 513 nM. The result for `COC(=O)[C@@H](C)NC(=O)c1ccc(-c2ccccc2C#N)nc1NCCc1cccc(F)c1` [methyl (2R)-2-[(6-(2-cyanophenyl)-2-{[2-(3-fluorophenyl)ethyl]amino}(3-pyridyl))carbonylamino]propanoate] reads 743 nM. The result for `COC(=O)[C@@H](CNC(=O)c1cc(F)c(-c2cnn(C)c2)nc1NCCc1cccc(F)c1)NC(=O)OC(C)(C)C` [methyl (2R)-2-[(tert-butoxy)carbonylamino]-3-[(5-fluoro-2-{[2-(3-fluorophenyl)ethyl]amino}-6-(1-methylpyrazol-4-yl)(3-pyridyl))carbonylamino]propanoate] reads 90800 nM. The same measure for `COC(=O)[C@H](N)CNC(=O)c1cc(F)c(-c2cnn(C)c2)nc1NCCc1cccc(F)c1` [methyl (2R)-2-amino-3-[(5-fluoro-2-{[2-(3-fluorophenyl)ethyl]amino}-6-(1-methylpyrazol-4-yl)(3-pyridyl))carbonylamino]propanoate]: 568 nM. Regarding `COC(=O)[C@H](N)CNC(=O)c1ccc(-c2ccccc2C#N)nc1NCCc1cccc(F)c1` [methyl (2R)-2-amino-3-[(6-(2-cyanophenyl)-2-{[2-(3-fluorophenyl)ethyl]amino}(3-pyridyl))carbonylamino]propanoate], the IC50 stood at 2290 nM.
